Experimental data published in patent publication US10206904B2, “Licofelone derivatives and methods of use” (The Board of Regents of the University of Oklahoma, priority 2015, dated 2019).
“Also recorded” adds a separate entry of the source. Read-outs that look alike come from different tables or passages of the source.

Legend:
5-LOX = 5-LOX (Rattus norvegicus, UniProt P12527); settings: two weeks, male F344 rats
Protocol: (§1) Male F344 rats at 8 weeks of age treated with AOM (15 mg/Kg BW) and exposed to 2% DSS for three days. […] Further, the inflammation was scored by following below criteria: […]

mPGES-1 = mPGES-1 (Rattus norvegicus, UniProt Q9JHF3); settings: two weeks, male F344 rats
mPGES-1, sequence (Q9JHF3 whole entry): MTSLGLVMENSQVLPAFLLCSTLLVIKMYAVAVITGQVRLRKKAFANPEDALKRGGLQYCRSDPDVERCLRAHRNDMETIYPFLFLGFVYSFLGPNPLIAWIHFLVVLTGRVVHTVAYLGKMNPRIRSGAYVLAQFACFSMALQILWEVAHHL
Protocol: as §1

COX-1/2 = settings: two weeks, male F344 rats
Protocol: as §1

[1] = stored in food cups for seven days
Protocol: Then aliquots of samples taken from the top, middle and bottom portions of the diets were analyzed for agents homogeneity of the experimental diets. […] Based on this information, frequency of preparation of experimental diets was once a week, and food cups were changed 3 times a week.

[2] = system: inflammatory cytokines and receptors; settings: 800 ppm in diet, AOM-induced rat colon tumors
Protocol: Colonic tumors (CTs) were induced by colon specific carcinogen Azoxymethane (15 mg/kg by wt, once weekly for 2 weeks) in F344 rats at 8 weeks' age. […] Rats were killed 36 weeks after second AOM and analyzed for inflammatory cytokines and receptors and compared with control diet fed rat colonic tumors.

[3] = for Major Organ Toxicity / Ulceration (Grade) Colon / Ulceration (Grade) Small Intestine / Ulceration (Grade) Stomach / Liver enzymes ALKP / Liver enzymes ALT / Liver enzymes AST / Liver enzymes LDH: male C57 mice; for Liver enzymes ALKP / Liver enzymes ALT / Liver enzymes AST / Liver enzymes LDH: Mean ± SEM
Protocol: Body weights and symptoms of toxicity were recorded twice weekly for 6 weeks. […] All organs were examined grossly for any abnormalities upon necropsy. Livers, kidney, stomach, intestinal tract, and blood were obtained from the animals and analyzed for Liver enzyme profile, GI ulceration, and levels of test agents.
All animals found dead will be necropsied to confirm that the most likely cause of death was due to intestinal ulcerations.
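Wherever Major Organ Toxicity is given: gross examination of all organs at necropsy, with liver enzyme profile and GI ulceration assessed in collected tissues and blood.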
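Wherever Ulceration (Grade) Colon is given: gross examination of all organs at necropsy, with liver enzyme profile and GI ulceration assessed in collected tissues and blood.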
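Wherever Ulceration (Grade) Small Intestine is given: gross examination of all organs at necropsy, with liver enzyme profile and GI ulceration assessed in collected tissues and blood.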
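Wherever Ulceration (Grade) Stomach is given: gross examination of all organs at necropsy, with liver enzyme profile and GI ulceration assessed in collected tissues and blood.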

5-LOX, sequence (P12527 whole entry): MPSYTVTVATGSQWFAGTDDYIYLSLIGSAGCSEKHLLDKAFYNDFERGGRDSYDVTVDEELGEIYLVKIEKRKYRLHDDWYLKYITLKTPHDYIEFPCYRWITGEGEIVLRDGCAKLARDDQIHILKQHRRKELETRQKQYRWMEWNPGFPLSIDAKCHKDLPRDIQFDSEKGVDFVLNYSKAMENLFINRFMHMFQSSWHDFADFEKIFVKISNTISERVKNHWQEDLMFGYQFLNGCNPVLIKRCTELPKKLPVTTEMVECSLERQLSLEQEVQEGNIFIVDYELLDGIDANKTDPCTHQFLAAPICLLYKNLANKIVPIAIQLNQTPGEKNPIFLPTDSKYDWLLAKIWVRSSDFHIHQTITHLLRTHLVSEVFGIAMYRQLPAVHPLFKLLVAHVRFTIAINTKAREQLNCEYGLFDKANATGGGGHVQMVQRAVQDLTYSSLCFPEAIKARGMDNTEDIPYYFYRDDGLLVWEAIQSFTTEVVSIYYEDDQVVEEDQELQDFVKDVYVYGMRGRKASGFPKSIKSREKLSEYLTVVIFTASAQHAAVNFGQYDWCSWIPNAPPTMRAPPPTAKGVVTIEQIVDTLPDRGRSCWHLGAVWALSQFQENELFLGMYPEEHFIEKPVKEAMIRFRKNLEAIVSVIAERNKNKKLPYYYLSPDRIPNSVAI

In the case of CC1(C)Cc2c(-c3ccccc3)c(-c3ccc(Cl)cc3)c(CC(=O)NCC(=O)O)n2C1 [LFA-9, licofelone-glycine], the “AOM-DSS-Induced 5-LOX (colonic mucosa)” value (5-LOX; 100 ppm in diet) is reported as 14.5%, the “AOM-DSS-Induced 5-LOX (colonic mucosa)” value (5-LOX; 200 ppm in diet) is reported as 22.6% and the “AOM-DSS-Induced 5-LOX (colonic mucosa)” value (5-LOX; 400 ppm in diet) is reported as 63.7%. For the same compound, the “AOM-DSS-Induced 5-LOX (colonic mucosa)” value (5-LOX; 600 ppm in diet) was 74.7%, the “AOM-DSS-Induced 5-LOX (colonic mucosa)” value (5-LOX; 800 ppm in diet) was 88.3% and the “AOM-DSS-Induced mPGES-1 (colonic mucosa)” value (mPGES-1; 100 ppm in diet) was 22.6%^. For the same compound, the “AOM-DSS-Induced mPGES-1 (colonic mucosa)” value (mPGES-1; 200 ppm in diet) was 33.7%^, the “AOM-DSS-Induced mPGES-1 (colonic mucosa)” value (mPGES-1; 400 ppm in diet) was 58% and the “AOM-DSS-Induced mPGES-1 (colonic mucosa)” value (mPGES-1; 600 ppm in diet) was 77%. For the same compound, the “AOM-DSS-Induced mPGES-1 (colonic mucosa)” value (mPGES-1; 800 ppm in diet) was 83%, the “AOM-DSS-Induced COX-1/2 (colonic mucosa)” value (COX-1/2; 100 ppm in diet) was 3.8% and the “AOM-DSS-Induced COX-1/2 (colonic mucosa)” value (COX-1/2; 200 ppm in diet) was 8.9%. For the same compound, the “AOM-DSS-Induced COX-1/2 (colonic mucosa)” value (COX-1/2; 400 ppm in diet) was 15.7%, the “AOM-DSS-Induced COX-1/2 (colonic mucosa)” value (COX-1/2; 600 ppm in diet) was 31.3% and the “AOM-DSS-Induced COX-1/2 (colonic mucosa)” value (COX-1/2; 800 ppm in diet) was 42.6%. The stability in diet [1] was greater than 96%, the “inflammatory cytokines and their receptors (PCR array) in colon tumors versus control” value [2] was “significantly decreased” and the “Major Organ Toxicity” value ([3]; 100 ppm in diet, 6 weeks) was “None”. For the same compound, the “Ulceration (Grade) Colon” value ([3]; 100 ppm in diet, 6 weeks) was “Grade 0”, the “Ulceration (Grade) Small Intestine” value ([3]; 100 ppm in diet, 6 weeks) was “Grade 0” and the “Ulceration (Grade) Stomach” value ([3]; 100 ppm in diet, 6 weeks) was “Grade 0”. The “Liver enzymes ALKP” value ([3]; 100 ppm in diet, 6 weeks) was 178 ± 32 units/L, the “Liver enzymes ALT” value ([3]; 100 ppm in diet, 6 weeks) was 82 ± 15 units/L and the “Liver enzymes AST” value ([3]; 100 ppm in diet, 6 weeks) was 75 ± 8.5 units/L. The “Liver enzymes LDH” value ([3]; 100 ppm in diet, 6 weeks) was 408 ± 28 units/L, the “Major Organ Toxicity” value ([3]; 200 ppm in diet, 6 weeks) was “None” and the “Ulceration (Grade) Colon” value ([3]; 200 ppm in diet, 6 weeks) was “Grade 0”. The “Ulceration (Grade) Small Intestine” value ([3]; 200 ppm in diet, 6 weeks) was “Grade 0”, the “Ulceration (Grade) Stomach” value ([3]; 200 ppm in diet, 6 weeks) was “Grade 0” and the “Liver enzymes ALKP” value ([3]; 200 ppm in diet, 6 weeks) was 184 ± 30 units/L. For the same compound, the “Liver enzymes ALT” value ([3]; 200 ppm in diet, 6 weeks) was 98 ± 13 units/L, the “Liver enzymes AST” value ([3]; 200 ppm in diet, 6 weeks) was 83 ± 10 units/L and the “Liver enzymes LDH” value ([3]; 200 ppm in diet, 6 weeks) was 394 ± 19 units/L. For the same compound, the “Major Organ Toxicity” value ([3]; 400 ppm in diet, 6 weeks) was “None”, the “Ulceration (Grade) Colon” value ([3]; 400 ppm in diet, 6 weeks) was “Grade 0” and the “Ulceration (Grade) Small Intestine” value ([3]; 400 ppm in diet, 6 weeks) was “Grade 0”. The “Ulceration (Grade) Stomach” value ([3]; 400 ppm in diet, 6 weeks) was “Grade 0”, the “Liver enzymes ALKP” value ([3]; 400 ppm in diet, 6 weeks) was 187 ± 38 units/L and the “Liver enzymes ALT” value ([3]; 400 ppm in diet, 6 weeks) was 93 ± 15 units/L. For the same compound, the “Liver enzymes AST” value ([3]; 400 ppm in diet, 6 weeks) was 68 ± 7.5 units/L, the “Liver enzymes LDH” value ([3]; 400 ppm in diet, 6 weeks) was 379 ± 29 units/L and the “Major Organ Toxicity” value ([3]; 800 ppm in diet, 6 weeks) was “None”. For the same compound, the “Ulceration (Grade) Colon” value ([3]; 800 ppm in diet, 6 weeks) was “Grade 0”, the “Ulceration (Grade) Small Intestine” value ([3]; 800 ppm in diet, 6 weeks) was “Grade 0” and the “Ulceration (Grade) Stomach” value ([3]; 800 ppm in diet, 6 weeks) was “Grade 0”. For the same compound, the “Liver enzymes ALKP” value ([3]; 800 ppm in diet, 6 weeks) was 181 ± 27 units/L, the “Liver enzymes ALT” value ([3]; 800 ppm in diet, 6 weeks) was 104 ± 13 units/L and the “Liver enzymes AST” value ([3]; 800 ppm in diet, 6 weeks) was 82 ± 11 units/L. For the same compound, the “Liver enzymes LDH” value ([3]; 800 ppm in diet, 6 weeks) was 422 ± 43 units/L, the “body weight loss or gross histological symptoms of toxicity” value ([3]; 800 ppm in diet, C57BL/6 mice) was “do not induce any body weight loss or gross histological symptoms of toxicity” and the “Major Organ Toxicity” value ([3]; 1,600 ppm in diet, 6 weeks) was “Liver”. For the same compound, the “Ulceration (Grade) Colon” value ([3]; 1,600 ppm in diet, 6 weeks) was “Grade 1”, the “Ulceration (Grade) Small Intestine” value ([3]; 1,600 ppm in diet, 6 weeks) was “Grade 0” and the “Ulceration (Grade) Stomach” value ([3]; 1,600 ppm in diet, 6 weeks) was “Grade 1”. For the same compound, the “Liver enzymes ALKP” value ([3]; 1,600 ppm in diet, 6 weeks) was 288 ± 24 units/L, the “Liver enzymes ALT” value ([3]; 1,600 ppm in diet, 6 weeks) was 158 ± 18 units/L and the “Liver enzymes AST” value ([3]; 1,600 ppm in diet, 6 weeks) was 132 ± 17 units/L. The “Liver enzymes LDH” value ([3]; 1,600 ppm in diet, 6 weeks) was 589 ± 42 units/L, the “animals died at the end of six-week exposure” value ([3]; 1,600 ppm in diet, mice) was 3 animals and the “colonic ulceration at microscopic level” value ([3]; 1,600 ppm in diet, mice) was “Grade 1 to 2”. For the same compound, the “liver toxicity by gross pathology” value ([3]; 1,600 ppm in diet, mice) was “modest liver toxicity”, the “stomach ulceration at microscopic level” value ([3]; 1,600 ppm in diet, mice) was “Grades 2 to 3” and the “body weight loss as compared to control diet fed mice body weight gain” value ([3]; 1,600 ppm in diet, six weeks, mice) was roughly 30%. The ulceration ([3]; doses up to 800 ppm in diet) was “no ulceration” and the “toxicity and body weight gain” value ([3]; up to 800 ppm in diet, 6 weeks) was “does not induce any toxicity; also recorded: did not exhibit toxicity”.
